Measured values from ChEMBL document CHEMBL1201862, “PubChem BioAssay data set” (2004).
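Following 48 hours of exposure in 96-well plates, responses at five concentrations were used to interpolate endpoints linearly. GI50 = concentration required for 50% inhibition of growth.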 Activity calls are given as the source filed them. Rule as the data show it: active = GI50 up to about 1.1 µM and inactive = higher.

Key:
Experiment in all cases: DTP human tumour cell line panel, 48 h
SF-268 = system: SF-268
DU-145 = system: DU-145
Malme-3M = system: Malme-3M
RXF 393 = system: RXF 393
HT-29 = system: HT-29
MDA-MB-435 = system: MDA-MB-435
NCI/ADR-RES = system: NCI/ADR-RES
UACC-62 = system: UACC-62
IGROV-1 = system: IGROV-1
K562 = system: K562
OVCAR-8 = system: OVCAR-8
EKVX = system: EKVX
MCF7 = system: MCF7
NCI-H226 = system: NCI-H226
MDA-MB-231 = system: MDA-MB-231
PC-3 = system: PC-3
RPMI-8226 = system: RPMI-8226
NCI-H460 = system: NCI-H460
SR = system: SR
HOP-92 = system: HOP-92
OVCAR-5 = system: OVCAR-5
UO-31 = system: UO-31
HCT-15 = system: HCT-15
M14 = system: M14
KM12 = system: KM12
HCT-116 = system: HCT-116
786-0 = system: 786-0
Hs-578T = system: Hs-578T
TK-10 = system: TK-10
SF-295 = system: SF-295
UACC-257 = system: UACC-257
COLO 205 = system: COLO 205
SNB-19 = system: SNB-19
SW-620 = system: SW-620
SNB-75 = system: SNB-75
NCI-H522 = system: NCI-H522
U-251 = system: U-251
MOLT-4 = system: MOLT-4
HL-60 = system: HL-60
CAKI-1 = system: CAKI-1
SK-MEL-5 = system: SK-MEL-5
NCI-H23 = system: NCI-H23
A549 = system: A549
SK-OV-3 = system: SK-OV-3
SK-MEL-2 = system: SK-MEL-2
BT-549 = system: BT-549
SN12C = system: SN12C
T47D = system: T47D
SF-539 = system: SF-539
CCRF-CEM = system: CCRF-CEM
ACHN = system: ACHN
MDA-N = system: MDA-N
LOX IMVI = system: LOX IMVI
OVCAR-4 = system: OVCAR-4
HCC 2998 = system: HCC 2998
OVCAR-3 = system: OVCAR-3
SK-MEL-28 = system: SK-MEL-28
HOP-62 = system: HOP-62

Measured: GI50

COC(CNC(=O)C(C)NC(=O)/C=C/c1ccccc1)OC (stereo unspecified)
inactive: SF-268 > 100 µM | DU-145 > 100 µM | Malme-3M > 100 µM | RXF 393 > 100 µM | HT-29 > 100 µM | MDA-MB-435 > 100 µM | NCI/ADR-RES > 100 µM | UACC-62 > 100 µM | IGROV-1 > 100 µM | K562 > 100 µM | OVCAR-8 > 100 µM | EKVX > 100 µM | MCF7 > 100 µM | NCI-H226 > 100 µM | MDA-MB-231 > 100 µM | PC-3 > 100 µM | RPMI-8226 > 100 µM | NCI-H460 > 100 µM | SR > 100 µM | HOP-92 > 100 µM | OVCAR-5 > 100 µM | UO-31 > 100 µM | M14 > 100 µM | KM12 > 100 µM | HCT-116 > 100 µM | 786-0 > 100 µM | Hs-578T > 100 µM | TK-10 > 100 µM | SF-295 > 100 µM | UACC-257 > 100 µM | COLO 205 > 100 µM | SNB-19 > 100 µM | SW-620 > 100 µM | SNB-75 > 100 µM | NCI-H522 62.1 µM | U-251 > 100 µM | MOLT-4 > 100 µM | HL-60 > 100 µM | CAKI-1 > 100 µM | SK-MEL-5 > 100 µM | NCI-H23 > 100 µM | A549 > 100 µM | SK-OV-3 > 100 µM | SK-MEL-2 > 100 µM | BT-549 > 100 µM | SN12C > 100 µM | T47D > 100 µM | SF-539 > 100 µM | CCRF-CEM > 100 µM | ACHN > 100 µM | MDA-N > 100 µM
> 100 µM: HCT-15

CC(=O)N1C(Nc2cnc3ccccc3c2)CCN1c1ccccc1 (stereo unspecified)
> 10 µM: HCT-15
inactive: SF-268 > 10 µM | DU-145 > 10 µM | Malme-3M > 10 µM | RXF 393 > 10 µM | HT-29 > 10 µM | MDA-MB-435 > 10 µM | LOX IMVI 5.65 µM | NCI/ADR-RES > 10 µM | OVCAR-4 > 10 µM | IGROV-1 > 10 µM | K562 6.58 µM | OVCAR-8 > 10 µM | EKVX > 10 µM | MCF7 > 10 µM | NCI-H226 > 10 µM | MDA-MB-231 > 10 µM | PC-3 > 10 µM | RPMI-8226 > 10 µM | NCI-H460 > 10 µM | SR > 10 µM | OVCAR-5 > 10 µM | UO-31 > 10 µM | HCC 2998 > 10 µM | M14 > 10 µM | HCT-116 > 10 µM | 786-0 > 10 µM | Hs-578T > 10 µM | TK-10 > 10 µM | SF-295 > 10 µM | UACC-257 > 10 µM | OVCAR-3 > 10 µM | COLO 205 > 10 µM | SNB-19 > 10 µM | SW-620 4.78 µM | SNB-75 > 10 µM | NCI-H522 > 10 µM | MOLT-4 > 10 µM | HL-60 6.37 µM | CAKI-1 > 10 µM | SK-MEL-28 > 10 µM | SK-MEL-5 > 10 µM | NCI-H23 > 10 µM | A549 > 10 µM | SK-OV-3 > 10 µM | SK-MEL-2 > 10 µM | HOP-62 > 10 µM | BT-549 > 10 µM | SN12C > 10 µM | T47D > 10 µM | SF-539 > 10 µM | CCRF-CEM > 10 µM | ACHN 9.57 µM | MDA-N > 10 µM
